Test results reported in patent publication US11339130B1 (Blade Therapeutics, Inc., priority 2016, dated 2022).

Key:
[1] = test system: Calpain activity in SH-SY5Y cells (SBDP-150); experiment: SH-SY5Y Spectrin western blot assay (SBDP-150 breakdown product, A23187-induced); assay type: cell-based; conditions: Homo sapiens; Column D; SH-SY5Y cells, A23187-induced SBDP-150; read-out: SH-SY5Y Spectrin IC50
human calpain 9 = molecular target: T1, human calpain 9 (Homo sapiens, UniProt O14815); experiment: Calpain binding: crystal structure interaction distances, human calpain 9
T1 construct: human calpain 9, residues 27-347, was over expressed in E. coli BL21 (DE3); hexa-histidine (N); made in house; host or cells: E. coli BL21 (DE3)
T1 sequence (O14815 27-347): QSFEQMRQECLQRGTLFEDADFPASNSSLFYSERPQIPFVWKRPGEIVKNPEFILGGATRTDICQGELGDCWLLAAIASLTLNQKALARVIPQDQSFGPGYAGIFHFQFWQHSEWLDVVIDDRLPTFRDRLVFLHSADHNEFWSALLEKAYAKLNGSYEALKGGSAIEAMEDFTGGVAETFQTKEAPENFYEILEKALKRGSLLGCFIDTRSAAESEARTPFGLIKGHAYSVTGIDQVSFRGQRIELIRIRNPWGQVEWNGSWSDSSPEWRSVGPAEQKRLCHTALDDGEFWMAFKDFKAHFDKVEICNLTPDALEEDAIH
Method: Calpain 9 Protein Preparation: N-terminally hexa-histidine-tagged human calpain 9, residues 27-347, was over expressed in E. coli BL21 (DE3) and purified via Ni-NTA and size-exclusion chromatography with yields >10 mg/liter of culture and >99% purity. The calpain 9 sequence is accession number 014815 at uniprot.org.
Calpain 9 Crystallization: A 10 mg/ml solution of rat calpain 1 or human calpain 9 (obtained as described above) was prepared in 50 mM tris (pH 8), 0.5 M NaCl, 1 mM EDTA, 1 mM CaCl2), and 1 mM beta-mercaptoethanol against MCSG1 screen condition C2 (Anatrace, Maumee, Ohio) containing 0.2 M LiSO4, 0.1 M bis-tris (pH 5.5), and 25% PEG 3350. The solution contained 2.5 mM of test compound supplemented with 20% ethylene glycol as a cryo-protectant. The bound protein was crystallized using vapor diffusion, sitting drop, at […]. The space group was P 41 21 2, with unit cell dimensions of 97.2 Å, 97.2 Å, 173.4 Å.
Calpain 9 Crystallography data collection and refinement: Data was collected at the APS synchrotron, beamline 21-ID-F at […]. Reflections were collect between 45.0-2.1 Å with completeness of 100%. Reflection data was analyzed using XDS and Xscale (Heidelberg, Germany). Structure was solved using molecular replacement and was refined with PHENIX (Berkeley, Calif.) to an R value of 0.168, Rfree=0.210.
Key interactions between test compound moieties (with reference to the variables of Formula II) and calpain 1 or calpain 9 residues were determined as set forth in Tables 4-7 below.

[2] = test system: Bleomycin-induced pulmonary fibrosis; experiment: Bleomycin-induced pulmonary fibrosis in mice (14 d); assay type: in vivo; set-up: concentration or dose not given beside the values
Description: The method for inducing pulmonary fibrosis in mice is described in Current Protocols in Pharmacology: 5.46.1, entitled “Mouse Models of Bleomycin-induced Pulmonary Fibrosis”. In order to induce pulmonary fibrosis, 6-8 week old C57B1/6 mice or Wistar rats are instilled once oropharyngeally with ˜1.5 U/kg of bleomycin sulfate (Calbiochem, Billerica, Mass.). Briefly, for oropharyngeal administration of bleomycin, mice or rats are anesthetized with isofluorane and then suspended on its back at a˜60 degree angle on an inclined surface with a rubber band running under the upper incisors. The airway is opened while securing the tongue with one arm of padded forceps and bleomycin is administered into the back of the oral cavity with a syringe. The animal's tongue and mouth were held open until the liquid disappeared from the oral cavity. The animal was then returned to its cage and monitored until fully recovered from the anesthesia. The study is terminated on day 14-28 for oropharyngeally administered bleomycin in mice and rats. All animals are euthanized at the termination of the studies by cervical dislocation for gross necropsy, and blood collected by cardiac puncture. The lungs from each animal are dissected from the animal and weighed. The BAL cells and fluid are collected by lavaging the lung twice with 0.5 ml Hanks Balanced Salt Solution (HBSS; VWR, Radnor, Pa.). After collection of BAL cells and fluid, lungs are dissected and removed from each animal. Whole lungs are inflated with 10% NBF and then fixed in 10% NBF for histology. Severity of fibrosis in the lungs is evaluated using a modified Ashcroft score (Hubner, Biotechniques, 2008) and subjective fibrosis scores. Lung sections were graded by averaging 5 microscopic fields at 20× on an Ashcroft scale as follows: Grade 0=normal lung; Grade 1=minimally detectable thickening of alveolar walls; Grade 2=Mild thickening of alveolar walls. Grade 3=moderate contiguous thickening of walls with fibrous nodules; Grade 4=Thickened septae and confluent fibrotic masses that total less than 10% of microscopic field. Grade 5=increased fibrosis with definite damage to lung structure and formation of fibrous bands or small fibrous masses between 10 and 50% of microscopic field; Grade 6=Large contiguous fibrotic masses consolidating more than 50% of microscopic field. Grade 7=severe distortion of structure and large fibrous areas; Grade 8=total fibrous obliteration of lung within microscopic field. Each slide was examined at 20× magnification and the score for 5 separate representative fields was averaged for each animal. Subjective scores (H&E and Trichrome-stained slides) were evaluated at 2× magnification for an overall assessment of pathologic change. A score of 0=no detectible findings to 5=complete involvement of consolidation. Scores in each group were averaged and standard error was calculated using Excel 2010. Dense, organized inflammatory exudates were scored as fibrosis. Other tissues were evaluated microscopically and scored routinely.

[3] = non-polar interactions with human calpain 9
[4] = polar interactions with human calpain 9

IC50 [1]: < 10 µM
Interaction Distances P1-Gly95 (human calpain 9; [3]): 3.9 Å
Interaction Distances P1-Gly189 (human calpain 9; [3]): 3.5 Å
Interaction Distances P1-Lys188 (human calpain 9; [3]): 4.0 Å
Interaction Distances P1-Ser242 (human calpain 9; [3]): 3.5 Å
Interaction Distances P2-Ala255 (human calpain 9; [3]): 3.6 Å
Interaction Distances P2-Gly190 (human calpain 9; [3]): 3.0 Å
Interaction Distances P2-Gly253 (human calpain 9; [3]): 3.2 Å
Interaction Distances P2-His254 (human calpain 9; [3]): 3.7 Å
Interaction Distances P2-Phe233 (human calpain 9; [3]): 4.1 Å
Interaction Distances P3-Gly189 (human calpain 9; [3]): 3.8 Å
Interaction Distances P3-Gly190 (human calpain 9; [3]): 3.3 Å
Interaction Distances P3-Ser191 (human calpain 9; [3]): 4.2 Å
Interaction Distances R^10-Gly253 (human calpain 9; [4]): 3.2 Å
Interaction Distances R^11-Gly190 (human calpain 9; [4]): 2.9 Å
Interaction Distances R^12-His254 (human calpain 9; [4]): 2.6 Å
Interaction Distances R^13-Cys97 (human calpain 9; [4]): 2.9 Å
Interaction Distances R^13-Gln91 (human calpain 9; [4]): 2.8 Å
SMILES: NC(=O)C(=O)[C@H](Cc1ccccc1)NC(=O)c1nsnc1-c1ccccc1 [Compound 72, (S)—N-(4-amino-3,4-dioxo-1-phenylbutan-2-yl)-4-phenyl-1,2,5-thiadiazole-3-carboxamide]
% reduction compared to vehicle [2]: −35%
